Calls of active or inactive are those of the source. The calls are words filed in the database; no cut-off is given here.
Experiments:
[1] = AUC (0 to 24 hrs) in monkey PBMC assessed as FNC-TP level at 1 mg/kg, po administered as single dose by LC-MS/MS analysis; format: ADME, organism-based, Macaca mulatta; set-up: time < 24 hr, dose 1 mg/kg, route oral; conditions: rhesus monkey, in vivo
[2] = AUC (0 to 24 hrs) in monkey PBMC assessed as FNC-TP level at 6 mg/kg, po administered as single dose by LC-MS/MS analysis; format: ADME, organism-based, Macaca mulatta; set-up: dose 6 mg/kg, time < 24 hr, route oral; conditions: rhesus monkey, in vivo
[3] = target: Virion infectivity factor (Human immunodeficiency virus type 1 group M subtype B (isolate NY5)(HIV-1)) (UniProt P12504); assay: Inhibition of HIV1 HA-tagged Vif expressed in HEK293T cells co-expressing eGFP-tagged pcDNA-APOBEC3G assessed as reduction in Vif-mediated A3G degradation at 10 nM measured after 48 hrs by flow cytometry; format: cell-based; conditions: Human immunodeficiency virus 1, HEK-293T
Chain of Virion infectivity factor (Human immunodeficiency virus type 1 group M subtype B (isolate NY5)(HIV-1)) (P12504 whole entry): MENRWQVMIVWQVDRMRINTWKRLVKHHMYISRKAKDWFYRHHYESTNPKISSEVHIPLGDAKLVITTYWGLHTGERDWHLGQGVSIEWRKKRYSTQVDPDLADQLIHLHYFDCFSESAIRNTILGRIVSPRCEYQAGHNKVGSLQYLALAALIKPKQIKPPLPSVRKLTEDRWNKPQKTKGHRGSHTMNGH

[4] = Cmax in monkey plasma at 6 mg/kg, po administered as single dose by LC-MS/MS analysis; format: ADME, organism-based, Macaca mulatta; set-up: dose 6 mg/kg, route oral; conditions: rhesus monkey
[5] = Binding affinity to HIV1 Vif and CBFbeta-ELOB-ELOC complex (unknown origin) assessed as compound-complex adduct formation measured after 150 secs by CM5 chip based assay
[6] = test system: Human immunodeficiency virus 1; assay: Antiviral activity against JRFL pseudotyped HIV1 infected in human Hut/CCR5 cells assessed as time needed to reach 50% reduction of virus infection at 0.1 nM incubated with cells for 4 hrs prior to compound washout followed by viral infection and measured after 72 hrs by luciferase reporter gene assay; format: functional
[7] = Effect on CD25 surface expression in IL2-induced human PBMC-derived CD14-positive monocytes at 100 nM measured after 48 hrs by immunostaining based flow cytometry; format: ADME; conditions: 0.1 µM
[8] = test system: Human immunodeficiency virus 1; assay: Synergistic antiviral activity against JRFL pseudotyped HIV1 infected in human Hut/CCR5 cells assessed as combination index in presence of rilpivirine by luciferase reporter gene based assay; format: functional
[9] = Cmax in monkey PBMC assessed as FNC-TP level at 1 mg/kg, po administered as single dose by LC-MS/MS analysis; format: ADME, organism-based, Macaca mulatta; set-up: dose 1 mg/kg, route oral; conditions: rhesus monkey, in vivo
[10] = Binding affinity to HIV1 Vif and CBFbeta-ELOB-ELOC complex (unknown origin) by CM5 chip based assay

In the case of [N-]=[N+]=N[C@]1(CO)O[C@@H](n2ccc(N)nc2=O)[C@@H](F)[C@@H]1O [RO-0622], the AUC [1] is reported as 0.09933 µM·h, the AUC [2] is reported as 0.24922 µM·h and the inhibition [3] is reported as “Active”. It also gave a Cmax [4] of 2070 nM, an Activity [5] of 36% and a Time [6] of 68.6 to 68.63 h. For the same molecule, the Activity [7] was “Non-Toxic”, the CI50 [8] was 0.113 and the CI75 [8] was 0.0902. It also gave a CI90 [8] of 0.07208, a CI95 [8] of 0.06194 and a Cmax [9] of 2.1 nM. The Kd [10] was 87 nM.
